pIC50: −log10 of the molar value.
Tested on: A-431
Assay: Antiproliferative activity against human A-431 cells
Type: functional, cell-based
Details: not given

Row | Compound | pIC50
1 | C[C@H]1[C@@H](OCCn2cc(COc3cccc(O)c3)nn2)O[C@@H]2O[C@@]3(C)CC[C@H]4[C@H](C)CC[C@@H]1[C@@]24OO3 | 4.75
2 | CC(=O)c1ccccc1-n1cc(CO[C@H]2O[C@@H]3O[C@]4(C)OO[C@]35[C@@H](CC[C@@H](C)[C@@H]5C[C@H]4O)[C@H]2C)nn1 | 4.60
3 | C[C@H]1[C@@H](OCCn2cc(COc3ccc(C=O)c(O)c3)nn2)O[C@@H]2O[C@@]3(C)CC[C@H]4[C@H](C)CC[C@@H]1[C@@]24OO3 | 4.75
4 | C[C@H]1[C@@H](OCc2cn(-c3ccc(C#N)cc3)nn2)O[C@@H]2O[C@]3(C)OO[C@]24[C@H]1CC[C@@H](C)[C@@H]4C[C@H]3O | 4.60

Tested on: K562
Assay: Antiproliferative activity against human K562 cells
Type: functional, cell-based
Details: not given

Row | Compound | pIC50
5 | C[C@H]1[C@@H](OCCn2cc(COc3cccc(O)c3)nn2)O[C@@H]2O[C@@]3(C)CC[C@H]4[C@H](C)CC[C@@H]1[C@@]24OO3 | 4.75
6 | CC(=O)c1ccccc1-n1cc(CO[C@H]2O[C@@H]3O[C@]4(C)OO[C@]35[C@@H](CC[C@@H](C)[C@@H]5C[C@H]4O)[C@H]2C)nn1 | 4.60
7 | C[C@H]1[C@@H](OCCn2cc(COc3ccc(C=O)c(O)c3)nn2)O[C@@H]2O[C@@]3(C)CC[C@H]4[C@H](C)CC[C@@H]1[C@@]24OO3 | 4.75
8 | C[C@H]1[C@@H](OCc2cn(-c3ccc(C#N)cc3)nn2)O[C@@H]2O[C@]3(C)OO[C@]24[C@H]1CC[C@@H](C)[C@@H]4C[C@H]3O | 4.60

Tested on: PC-3
Assay: Antiproliferative activity against human PC-3 cells
Type: functional, cell-based
Details: not given

Row | Compound | pIC50
9 | C[C@H]1[C@@H](OCCn2cc(COc3cccc(O)c3)nn2)O[C@@H]2O[C@@]3(C)CC[C@H]4[C@H](C)CC[C@@H]1[C@@]24OO3 | 4.75
10 | CC(=O)c1ccccc1-n1cc(CO[C@H]2O[C@@H]3O[C@]4(C)OO[C@]35[C@@H](CC[C@@H](C)[C@@H]5C[C@H]4O)[C@H]2C)nn1 | 4.60
11 | C[C@H]1[C@@H](OCCn2cc(COc3ccc(C=O)c(O)c3)nn2)O[C@@H]2O[C@@]3(C)CC[C@H]4[C@H](C)CC[C@@H]1[C@@]24OO3 | 4.75
12 | C[C@H]1[C@@H](OCc2cn(-c3ccc(C#N)cc3)nn2)O[C@@H]2O[C@]3(C)OO[C@]24[C@H]1CC[C@@H](C)[C@@H]4C[C@H]3O | 4.60

Tested on: MDA-MB-231
Assay: Antiproliferative activity against human MDA-MB-231 cells
Type: functional, cell-based
Details: Homo sapiens, MDA-MB-231

Row | Compound | pIC50
13 | C[C@H]1[C@@H](OCCn2cc(COc3cccc(O)c3)nn2)O[C@@H]2O[C@@]3(C)CC[C@H]4[C@H](C)CC[C@@H]1[C@@]24OO3 | 4.75
14 | CC(=O)c1ccccc1-n1cc(CO[C@H]2O[C@@H]3O[C@]4(C)OO[C@]35[C@@H](CC[C@@H](C)[C@@H]5C[C@H]4O)[C@H]2C)nn1 | 4.60
15 | C[C@H]1[C@@H](OCCn2cc(COc3ccc(C=O)c(O)c3)nn2)O[C@@H]2O[C@@]3(C)CC[C@H]4[C@H](C)CC[C@@H]1[C@@]24OO3 | 4.75
16 | C[C@H]1[C@@H](OCc2cn(-c3ccc(C#N)cc3)nn2)O[C@@H]2O[C@]3(C)OO[C@]24[C@H]1CC[C@@H](C)[C@@H]4C[C@H]3O | 4.60

Tested on: not listed separately
Assay: Antiproliferative activity against mouse P388 cells assessed as reduction in cell viability measured after 72 hrs
Type: functional, cell-based
Details: time 72 hrs

Row | Compound | GI50 [µM]
17 | C[C@H]1[C@@H](Oc2ccc(C(=O)N3CCN(Cc4ccccc4)CC3)cc2)O[C@@H]2O[C@@]3(C)CC[C@H]4[C@H](C)CC[C@@H]1[C@@]24OO3 | 0.0221
18 | C[C@H]1[C@@H](Oc2ccc(C(=O)N3CCN(c4ccccc4)CC3)cc2)O[C@@H]2O[C@@]3(C)CC[C@H]4[C@H](C)CC[C@@H]1[C@@]24OO3 | 0.0221
19 | C[C@H]1[C@@H](Oc2ccc(C(=O)N3CCN(C/C=C/c4ccccc4)CC3)cc2)O[C@@H]2O[C@@]3(C)CC[C@H]4[C@H](C)CC[C@@H]1[C@@]24OO3 | 0.0221

Tested on: COLO 205
Assay: Antiproliferative activity against human COLO 205 cells
Type: functional, cell-based
Details: not given

Row | Compound | pIC50
20 | C[C@H]1[C@@H](OCCn2cc(COc3cccc(O)c3)nn2)O[C@@H]2O[C@@]3(C)CC[C@H]4[C@H](C)CC[C@@H]1[C@@]24OO3 | 4.75
21 | CC(=O)c1ccccc1-n1cc(CO[C@H]2O[C@@H]3O[C@]4(C)OO[C@]35[C@@H](CC[C@@H](C)[C@@H]5C[C@H]4O)[C@H]2C)nn1 | 4.60
22 | C[C@H]1[C@@H](OCCn2cc(COc3ccc(C=O)c(O)c3)nn2)O[C@@H]2O[C@@]3(C)CC[C@H]4[C@H](C)CC[C@@H]1[C@@]24OO3 | 4.75
23 | C[C@H]1[C@@H](OCc2cn(-c3ccc(C#N)cc3)nn2)O[C@@H]2O[C@]3(C)OO[C@]24[C@H]1CC[C@@H](C)[C@@H]4C[C@H]3O | 4.60

Tested on: HEK293
Assay: Antiproliferative activity against human HEK293 cells
Type: functional, cell-based
Details: not given

Row | Compound | pIC50
24 | C[C@H]1[C@@H](OCCn2cc(COc3cccc(O)c3)nn2)O[C@@H]2O[C@@]3(C)CC[C@H]4[C@H](C)CC[C@@H]1[C@@]24OO3 | 4.75
25 | CC(=O)c1ccccc1-n1cc(CO[C@H]2O[C@@H]3O[C@]4(C)OO[C@]35[C@@H](CC[C@@H](C)[C@@H]5C[C@H]4O)[C@H]2C)nn1 | 4.60
26 | C[C@H]1[C@@H](OCCn2cc(COc3ccc(C=O)c(O)c3)nn2)O[C@@H]2O[C@@]3(C)CC[C@H]4[C@H](C)CC[C@@H]1[C@@]24OO3 | 4.75
27 | C[C@H]1[C@@H](OCc2cn(-c3ccc(C#N)cc3)nn2)O[C@@H]2O[C@]3(C)OO[C@]24[C@H]1CC[C@@H](C)[C@@H]4C[C@H]3O | 4.60

Tested on: P388/ADR
Assay: Antiproliferative activity against mouse P388/ADR cells assessed as reduction in cell viability measured after 72 hrs
Type: functional, cell-based
Details: time 72 hrs

Row | Compound | GI50 [µM]
28 | C[C@H]1[C@@H](Oc2ccc(C(=O)N3CCN(Cc4ccccc4)CC3)cc2)O[C@@H]2O[C@@]3(C)CC[C@H]4[C@H](C)CC[C@@H]1[C@@]24OO3 | 0.0221
29 | C[C@H]1[C@@H](Oc2ccc(C(=O)N3CCN(c4ccccc4)CC3)cc2)O[C@@H]2O[C@@]3(C)CC[C@H]4[C@H](C)CC[C@@H]1[C@@]24OO3 | 0.0221
30 | C[C@H]1[C@@H](Oc2ccc(C(=O)N3CCN(C/C=C/c4ccccc4)CC3)cc2)O[C@@H]2O[C@@]3(C)CC[C@H]4[C@H](C)CC[C@@H]1[C@@]24OO3 | 0.0221

Tested on: A549
Assay: Antiproliferative activity against human A549 cells
Type: functional, cell-based
Details: not given

Row | Compound | pIC50
31 | C[C@H]1[C@@H](OCCn2cc(COc3cccc(O)c3)nn2)O[C@@H]2O[C@@]3(C)CC[C@H]4[C@H](C)CC[C@@H]1[C@@]24OO3 | 4.75
32 | CC(=O)c1ccccc1-n1cc(CO[C@H]2O[C@@H]3O[C@]4(C)OO[C@]35[C@@H](CC[C@@H](C)[C@@H]5C[C@H]4O)[C@H]2C)nn1 | 4.60
33 | C[C@H]1[C@@H](OCCn2cc(COc3ccc(C=O)c(O)c3)nn2)O[C@@H]2O[C@@]3(C)CC[C@H]4[C@H](C)CC[C@@H]1[C@@]24OO3 | 4.75
34 | C[C@H]1[C@@H](OCc2cn(-c3ccc(C#N)cc3)nn2)O[C@@H]2O[C@]3(C)OO[C@]24[C@H]1CC[C@@H](C)[C@@H]4C[C@H]3O | 4.60

— ChEMBL document CHEMBL5244230, “Artemisinin-derived hybrids and their anticancer activity” (Eur J Med Chem, 2020)
